# Measured values as given in patent US10821152B2, “Methods, agents and compositions for treatment of inflammatory conditions” (Betanien Hospital, priority 2014, dated 2020).
# Read-outs that look alike come from different tables or passages of the source. Non-standard residues stand in square brackets, D forms with d. Residues, ends and D or L forms follow the SMILES beside them. dPhe(4-Cl) = N[C@H](Cc1ccc(Cl)cc1)C(=O)O; d2Nal = N[C@H](Cc1ccc2ccccc2c1)C(=O)O; dCit = NC(=O)NCCC[C@@H](N)C(=O)O; d3Pal = N[C@H](Cc1cccnc1)C(=O)O
# Experiments:
# [1] = tested on: patient with systemic sclerosis; conditions: Cyclophosphamide trial, literature, cited from earlier work
# [2] = tested on: patient with systemic lupus erythematosus; experiment: Previous therapies for pain in extremities of the lupus patient; type: in vivo, human; conditions: previous therapies before degarelix
# Protocol: Due to their painful condition, they have been followed up by a pain clinic. They were offered a tricyclic antidepressant, amitriptyline 25 mg in March 2014 for their painful condition.
# patient with colitis = conditions: week 2 after an infliximab infusion, literature; cited from earlier work
# [3] = tested on: patient with seropositive rheumatoid arthritis; experiment: Example treatment of RA using oral GnRH antagonists (DAS); type: in vivo, human
# Protocol: • person with seropositive rheumatoid arthritis with disease duration of 10 years. • Fulfills ACR 2010 classification criteria for rheumatoid arthritis. Experimental Treatment • Is offered experimental GnRH antagonist therapy, Elagolix 550 mg daily for 12 weeks.
# • person with seropositive rheumatoid arthritis with disease duration of 10 years. • Fulfills ACR 2010 classification criteria for rheumatoid arthritis. Experimental Treatment • Is offered experimental GnRH antagonist therapy, Relugolix 250 mg daily for 12 weeks.
# • person with seropositive rheumatoid arthritis with disease duration of 20 years. • Fulfills ACR 2010 classification criteria for rheumatoid arthritis. Experimental Treatment • Treated with a spiroindoline derivative as a GnRH antagonist orally 200 mg daily for 12 weeks.
# [4] = tested on: patient with spondyloarthritis; experiment: Example treatment of spondyloarthritis using Relugolix; type: in vivo, human
# Protocol: • person with spondyloarthritis with disease duration of 5 years. Experimental Treatment • Is offered experimental GnRH antagonist therapy, Relugolix 400 mg daily for 12 weeks. Assessment of Response at 4 Months • Disease activity in ankylosing spondylitis/spondyloarthritis is measured by the BASDAI score. Their BASDAI is 5 at baseline.
# [5] = tested on: patient with seropositive rheumatoid arthritis; experiment: Treatment of rheumatoid arthritis using Cetrorelix; type: in vivo, human; conditions: RA patient
# Protocol: • person with seropositive rheumatoid arthritis with disease duration of 10 years. • Fulfilled ACR 2010 classification criteria for rheumatoid arthritis. Experimental Treatment • Had tried all therapies available previously without effect. • Offered experimental GnRH antagonist therapy, Cetrorelix in 0.5 mg sc daily in October 2014, then 0.75 mg sc daily in December 2014.
# mice = experiment: Animal study of preventing age related inflammation; type: in vivo; conditions: 0.5 mg/kg daily with or without gonadal hormone replacement, vs placebo
# Protocol: An animal study is conducted with 40 fertile female mice aged approximately 6-20 months in a control group (group 1) receiving placebo, 40 age and sex matched mice receiving a drug that reduces the activity of GnRH (group 2), such as Cetrorelix 0.5 mg/kg daily, and 40 age and sex matched mice receiving the same GnRH inhibitor as group 2, but with the additional replacement of gonadal hormone (oestrogen) to age adjusted pre-chosen levels. All mice are followed prospectively, and evaluated for systemic inflammation markers, atherosclerosis, osteoporosis, LDL, and age at death. The same three interventions and assessments are carried out in three groups of male mice with 40 male mice in each group, aged approximately 6-20 months, replacing the gonadal hormone testosterone to pre-chosen levels in group 3. Mice treated with a drug that reduces the activity of GnRH, such as Cetrorelix 0.5 mg/kg daily with or without the replacement of gonadal hormone (preferably with) reach a higher age at death compared with mice in the placebo groups. These mice also show less atherosclerosis, osteoporosis and systemic inflammation than mice in the placebo groups.
# [6] = tested on: patients with active longstanding RA; experiment: Double-blinded randomised study of cetrorelix vs placebo in RA (NCT00667758), serum P1NP; type: in vivo, human
# Protocol: In this double-blinded, single-site study in Norway (ClinicalTrials.gov NCT00667758), 99 patients with active longstanding RA, were randomised to predefined intention-to-treat populations using computer-generated allocation (1:1) in dynamic blocks stratified for sex. Patients were assigned to subcutaneous cetrorelix (n=48) (5 mg days 1-2, 3 mg days 3-5) or placebo (n=51). P1NP was measured on day 10. We investigated serum P1NP between groups, a predefined secondary endpoint. Detailed efficacy and safety data are presented separately.
# [7] = tested on: patient with osteoarthritis of both knees; experiment: Intra-articular GnRH inhibiting treatment in osteoarthritis; type: in vivo, human; conditions: intra-articular 1 mg into both knees, 2 week post injection
# Description: • person with osteoarthritis of both knees diagnosed by x-ray 10 years ago • Has had synovitis secondary to osteoarthritis in both knees for the last month, confirmed by synovitis on ultrasound. Experimental Treatment • In order to treat the secondary inflammation as a result of their knee osteoarthritis, they are offered intra-articular GnRH antagonist treatment, for example Cetrorelix lmg injected into both knees. Subcutaneous Cetrorelix for injection can be used. Assessment of Response • Before and 2 week post injection ultrasound images are taken to show a decrease in synovitis in the knee joint.
# [8] = tested on: patients with rheumatoid arthritis; conditions: AGRA study, 5 days, Kass et al. 2014; cited from earlier work
# [9] = tested on: patient with lithium induced psoriasis; conditions: 15 patients with psoriasis taking lithium, pretreatment, literature; cited from earlier work
# [10] = tested on: patient with ankylosing spondylitis; experiment: Treatment of ankylosing spondylitis patient (BASDAI, laboratory variables); type: in vivo, human; conditions: AS patient
# Description: Diagnosed with ankylosing spondylitis in 1984, HLAB27 positive, with repeated iridocyclitis. Used non-steroidal anti-inflammatory drugs previously. They were offered the TNF-alpha inhibitor Golilimumab in 2010. Their disease activity score was 8.9 in October 2010 (see below for explanation of disease activity score) on initiating Golilimumab; by the June 2012 this score had reduced to 6.6, but by May 2013 the effect had worn off and their score was 7.6. May 2013, they initiated Enbrel treatment, but their disease activity increased from 7.6 to 8.3. Due to their poor response to TNF-alpha therapy, they were offered the GnRH antagonist Degarelix in September 2014.
# Disease activity in ankylosing spondylitis is measured by the BASDAI (Bath Ankylosing Spondylitis Disease Activity Index1), has been extensively validated in clinical trials, 2, 3 and is one of the most commonly used outcome measures in clinical trials. This is a componsite index that evaluates fatigue, axial and peripheral pain, stiffness and enthesopathy. Their BASDAI was at 8.7 at baseline. In September 2014 they received their first dose of Degarelix 240 mg sc. By 2 weeks, their BASDAI had reduced to 6.8, and by 6 weeks it had reduced to 5.8. This is the lowest BASDAI score they have ever had since we first started using this method of assessment 4 years ago in 2010. Their morning stiffness lasted 4 hours at baseline, by 6 weeks their morning stiffness had reduced to 2 hours. They had their second dose of Degarelix 80 mg s.c in October 2014. Lumbar flexion and maximum arm abduction were increased after 6 weeks of treatment.
# Response to therapy in clinical practice is defined as improvement of 2 units or 50% on a 0-10 scale of the BASDAI, and expert opinion that the treatment should be continued. Their reduction by 6 weeks was 2.9 units, and 7.1 units with an 82% BASDAI score improvement by 9 weeks, and we shall continue treatment. A BASDAI 50% improvement is defined as a major clinical response. […] For comparison, approximately 50-60% of patients achieve a BASDAI 50 by 12 weeks on TNF inhibitors (4). Their ESR has decreased from 46 mm to 23 mm, which is their lowest ESR reading in 19 years. […] By 9 weeks of GnRH antagonist therapy, their kidney function has normalized, and fasting glucose reduced from 7.4 to 6.5 mmol/L. By 3 months, the effect on their ankylosing spondylitis remained, creatinine was at 98 umol/L, with a glomerular filtration rate of 66 ml/min/1.73 m2 in December 2014.
compound,measurement,setting,value
O=P1(N(CCCl)CCCl)NCCCO1 (stereo not drawn) [Cyclophosphamide],"digital ulcers, average",[1]; over a period of 12 months,9 ulcers
same,"digital ulcers, average",[1]; start,7 ulcers
COc1c(C)c2c(c(O)c1C/C=C(\C)CCC(=O)OCCN1CCOCC1)C(=O)OC2 [mycophenolate mofetil],effect on pain in extremities,[2],not effective
infliximab: anti-tumour necrosis factor-α,Fecal calprotectin concentration,patient with colitis,decreases significantly
CONC(=O)Nc1ccc(-c2sc3c(c2CN(C)C)c(=O)n(-c2ccc(OC)nn2)c(=O)n3Cc2c(F)cccc2F)cc1 [Relugolix],Eular response,"[3]; Relugolix 250 mg daily for 12 weeks, assessment at 4 months",Good Eular Response
same,Disease activity score (DAS),"[3]; Relugolix 250 mg daily for 12 weeks, assessment at 4 months (remission)",2.5
same,Disease activity score (DAS),[3]; before Relugolix,3.5
same,BASDAI,"[4]; Relugolix 400 mg daily, at 12 weeks (remission)",1.2
same,BASDAI,[4]; baseline,5
Cn1cnc([N+](=O)[O-])c1Sc1ncnc2nc[nH]c12 [azathioprine],effect on pain in extremities,[2],not effective
NCC1(CC(=O)O)CCCCC1 [gabapentin],effect on pain in extremities,[2],no effect
CC(=O)N[C@H](Cc1ccc2ccccc2c1)C(=O)N[C@H](Cc1ccc(Cl)cc1)C(=O)N[C@H](Cc1cccnc1)C(=O)N[C@@H](CO)C(=O)N[C@@H](Cc1ccc(O)cc1)C(=O)N[C@H](CCCNC(N)=O)C(=O)N[C@@H](CC(C)C)C(=O)N[C@@H](CCCNC(=N)N)C(=O)N1CCC[C@H]1C(=O)N[C@H](C)C(N)=O [Cetrorelix] (Ac-[d2Nal][dPhe(4-Cl)][d3Pal]SY[dCit]LRP[dA]-NH2),CRP,[5]; at 12 weeks,18 mg/L
same,ESR,[5]; at 12 weeks,28 mm
same,rheumatoid factor level,[5]; at 12 weeks,111 kIU/L
same,Disease activity score (DAS),"[5]; at 12 weeks, 0.5 then 0.75 mg sc daily",5.5
same,CRP,[5]; before Cetrorelix,41 mg/L
same,Disease activity score (DAS),[5]; before Cetrorelix,6.1
same,ESR,[5]; before Cetrorelix,35 mm
same,rheumatoid factor level,[5]; before Cetrorelix,137 kIU/L
same,age at death,mice,higher
same,"atherosclerosis, osteoporosis and systemic inflammation",mice,less
same,P1NP mean difference vs placebo,"[6]; by day 10, 95% CI −6.62, −0.29, p=0.033",-3.45 µg/L
same,P1NP change,"[6]; cetrorelix group (n=48), 5 mg days 1-2, 3 mg days 3-5, by day 10",-4.21 µg/L
same,disease activity markers and TNF-α (log pg/mL),[6]; cetrorelix vs placebo,significant reductions
same,synovitis in the knee joint on ultrasound,[7],decrease
same,TNF-α,[8],possible reduction
same,primary end-point with regard to clinical response,[8],did not meet the primary end-point
O[C@H]1[C@H](O)[C@@H](O)[C@H](O)[C@@H](O)[C@H]1O [inositol],median PASI score,[9],4.9
Enbrel,disease activity (BASDAI),"[10]; May 2013, on initiating Enbrel",7.6
same,disease activity (BASDAI),[10]; after Enbrel treatment,8.3
CC(C)C[C@H](CN)CC(=O)O [pregabalin],effect on pain in extremities,[2],no effect
CN(Cc1cnc2nc(N)nc(N)c2n1)c1ccc(C(=O)N[C@@H](CCC(=O)O)C(=O)O)cc1 [methotrexate],effect on pain in extremities,[2],not effective
CN(C)CCC=C1c2ccccc2CCc2ccccc21 [amitriptyline],effect on pain in extremities,[2],no effect
Golilimumab: TNF-alpha inhibitor,disease activity score (BASDAI),[10]; June 2012 on Golilimumab,6.6
same,disease activity score (BASDAI),"[10]; May 2013 on Golilimumab, effect worn off",7.6
same,disease activity score (BASDAI),"[10]; October 2010, on initiating Golilimumab",8.9
